In patent publication US20230095509A1, “NON-FIBRILLAR HEMOGLOBIN S OLIGOMERS AND METHODS TO IDENTIFY MODULATORS OF HEMOGLOBIN S POLYMERIZATION” (REGENTS OF THE UNIVERSITY OF MINNESOTA, priority 2021, published 2023):
“Also recorded” adds a separate entry of the source.

What was measured:
[1] = target: T1, deoxyHbS oligomers (HbS-rhodamine red / HbS-Cy5) (Homo sapiens, UniProt P68871+P69905, E7V); test: Fluorescence lifetime (FLT) FRET assay of deoxyHbS oligomerization (LOPAC screen and dose response); type: biochemical
T1 construct: purchased Sigma
Protocol: Development of HTS platform for identification of small molecules that inhibit in vitro HbS nucleation: Sickle hemoglobin (HbS) (sigma) was labeled with either fluorescent donor (rhodamine red) or acceptor (Cy5) dyes (Thermo fisher scientific) via a cysteine thiol group. For labeling, lyophilized HbS (10 mg/ml) was dissolved in PBS (Sigma) and then centrifuged at 13000 g for five minutes at 4° C. to remove the debris. After centrifugation protein sample was incubated with TCEP (0.5-1 mM) for 20 minutes at room temperature to reduce the cysteine side-chain. This protein mixture was incubated with 1.5 mM dye (dissolved in DMSO or water) for two hours in the dark at room temperature or overnight at 4° C. Unreacted free dye was removed by dialysis against PBS. The degree of labeling was calculated by comparing the absorption of the fluorophore conjugated hemoglobin at 280 nm to the absorbance of the dye at its maximum wavelength. The dye concentration was measured by absorbance, using extinction coefficients of 250,000 M −1 cm -1 for Cy5 conjugates and 88000 M −1 cm -1 for Rhodamine Red conjugates.
High-Throughput Screening of LOPAC Library to Identify Compounds That Inhibit HbS Oligomerization Under Deoxy Condition: The LOPAC compounds (Thermo Fisher Scientific) were received in 96-well plates. Assay plates were prepared by transferring 5 nL of the 10 mM compound stocks or DMSO from the source plates to 1536-well black polypropylene plates (Greiner), using an Echo 550 acoustic dispenser (Labcyte). During screening, donor sample (HbS/Rhodamine Red) was mixed with acceptor (HbS/Cy5) at 1:5 ratios. Then protein samples were dispensed (5 μL, 25 μM) by a Multidrop Combi Reagent Dispenser (Thermo Fisher Scientific) into the 1536-well assay plates containing the compounds and incubated at room temperature for two hours. After incubation, protein samples were degassed for 10-15 minutes using vacuum argon degassing method. Lifetime measurements were taken by the fluorescence lifetime plate reader (Fluorescence Innovations, Inc).
Fluorescence Data Acquisition: We tested the functionality of the HbS FRET pair by measuring lifetimes of oxy-and deoxy HbA and HbS using a fluorescence lifetime plate reader (FIG. 3A). Lifetimes are reciprocally related to FRET, so a decrease in lifetime corresponds to an increase in FRET. Donor fluorescence was excited with a 532 nm laser (Teem Photonics SNG-20F-100, Meylan, France), delivering pulses of -0.3 μJ energy at a 20 kHz repetition rate, and emission was filtered with 546 nm long pass and 586/20 nm band pass filters. This filter was selected to exclude acceptor fluorescence, as only the lifetime of the donor fluorescent protein is required to calculate FRET (Equation (1)). The photomultiplier tube (PMT) voltage was adjusted so that the peak signals of the instrument response function (IRF) and FRET biosensor were similar.
High-Throughput Screening Data Analysis: Time resolve-fluorescence waveforms for each well were fitted with single-exponential decays using least-squares minimization global analysis software (Petersen et al., F2014, Rev Sci Instrum 85, 113101). FRET efficiency (E) was determined as the fractional decrease of donor lifetime (T_D ), due to the presence of acceptor fluorophore (T_DA) using equation 1: […]
These drug compounds were dissolved in DMSO to make 20 mM stock solution. Hits were screened at seven different concentrations. Protein samples were dispensed into the 96-well assay plates and incubated with hit compounds at room temperature for two hours. After incubation, protein samples were degassed for 10 minutes using vacuum argon degassing method. Lifetime measurements were taken by the fluorescence lifetime plate reader (Fluorescence Innovations, Inc).

[2] = target: deoxy-HbS oligomers (sickle hemoglobin, HbS) (Homo sapiens, UniProt P68871+P69905, E7V); test: Dynamic light scattering (DLS) of deoxy-HbS oligomers at sub-nucleating concentration; type: biochemical; details: HbS 25 μM, hit compounds 100 μM, two hours at room temperature, degassed with argon; FIG. 4C
Protocol: (FIG. 4A) Pilot screening with LOPAC library. Compounds that reduced the FRET efficiency below 3SD (black line) were selected for further characterization. […] Fluorescently labeled HbS samples were plated in a 1536 plate and treated separately with DMSO or the three hit compounds, chlormezanone, gabazine, and phosphoramidon disodium, in a dose-dependent manner from 0.1 to 1000 μM for 2 hours at room temperature and then vacuum degassed for 10 minutes, and then donor lifetimes were measured using a fluorescence plate reader. […] HbS samples (25 μM) were incubated separately with hit compounds (100 μM) or DMSO only for two hours at room temperature and degassed with argon for five minutes, and then DLS measurement were taken at room temperature. […] Effect of hit compounds on polymerization of deoxyHbS in high potassium phosphate buffer. Curves represent growth of polymer as a function of time in the presence or absence of drug.

N[C@@H](Cc1ccccc1)C(=O)O [phenylalanine]
FRET efficiency of HbS under deoxy conditions ([1]; known polymerization inhibitors as controls, FIG. 1D): decreased the FRET efficiency; also recorded: reduced FRET efficiency

CC(C)C[C@H](NP(=O)(O)O[C@@H]1O[C@@H](C)[C@H](O)[C@@H](O)[C@H]1O)C(=O)N[C@@H](Cc1c[nH]c2ccccc12)C(=O)O [phosphoramidon disodium]
size of deoxyHbS oligomers (DLS effective diameter) relative to control [2]: significantly decreased the oligomer size | FRET efficiency in dose response ([1]; 0.1 to 1000 μM, 2 hours at room temperature, then degassed, FIG. 4B): decreased FRET efficiency in a dose-dependent manner
